From US6949553B2, “Aliphatic compounds, their synthesis method, and utilization of the same” (Maruha Corporation, priority 2001, dated 2005)

Columns and labels:
platelets [1] = experiment: Collagen-induced in vitro platelet aggregation (rabbit PRP, transmittance); assay type: cell-based; conditions: Oryctolagus cuniculus; collagen 0.2 μg/ml, rabbit platelet rich plasma; read-out: 50% Inhibition Point for Platelet Aggregation, IC50
Procedure: Collagen-induced in vitro Platelet Aggregation
It was studied whether the compounds of the present invention would inhibit platelet aggregation induced by collagen.
These compounds were each diluted with physiological saline to end concentrations of 1×10^−7M, 3×10^−7M, 1×10^−6M, 3×10^−6M, 1×10^−5M, 3×10^−5M and 1×10^−4M.
Indomethacin was used as a positive control. Indomethacin was dissolved in methanol, and then diluted with physiological saline to end concentrations of 1×10^−6M, 3×10^−6M and 1×10^−5M.
Physiological saline was used as a negative control.
The tube was centrifuged at 900 rpm for 10 minutes at room temperature to separate the supernatant (PRP, platelet rich plasma fraction). The residue was further centrifuged for 15 minutes at 2,500 rpm to obtain the supernatant (PPP, platelet poor plasma fraction).
PPP (platelet poor plasma fraction) was placed in a cuvette, and the cuvette was mounted in a 37° C. incubator for PPP of an aggregometer (Hematracer 240 12ch, manufactured by MCM). Then, 200 μl of PRP (platelet rich plasma fraction) was added into a cuvette, and the cuvette was mounted in a reactor for PRP. With stirring by a magnetic stirrer, the transmittance of PPP was corrected to T650 nm=100%, and the transmittance of PRP was corrected to T650 nm=0%, by automatic adjustment for 30 seconds.
The study substance (20 μl) at a predetermined concentration was added into the cuvette and, 30 seconds later, 20 μl (end concentration 0.2 μg/ml) of collagen (produced by MCM) was added. Subsequent changes in the transmittance were recorded for 5 minutes. When the platelets are aggregated, the transmittance increases. When aggregation peaked, the transmittance T at maximum aggregation was compared with the transmittance T0 of the negative control, and the aggregation inhibition rate was expressed as percentage using the following equation: Aggregation inhibition rate=(1−T/T0)×100
From an aggregation inhibition curve obtained, a regression equation was derived by approximation of the linear type.

platelets [2] = experiment: In vitro platelet aggregation by various inducers, guinea pig platelets; assay type: cell-based; conditions: Cavia porcellus, inducer collagen (0.1 to 1 μg/ml), guinea pig platelets, read-out: 50% inhibition point, IC50, for in vitro platelet aggregation
Excerpt: (§1) Next, the suppression of platelet aggregation by the compounds of the present invention was studied in the same manner as described above with the use of not only collagen, but also arachidonic acid, ADP, thrombin, serotonin, epinephrine and U46619 (pseudo-thromboxane A2 substance) as inducers.
(§2) As platelets, platelets prepared from rats and guinea pigs as well as rabbits were also used.
(§3) Collagen and ADP were purchased from MCM, and used in accordance with the method of preparation described in the manuals attached to the purchased products. Serotonin, epinephrine and thrombin were purchased from Sigma, and used as solutions in physiological saline for injection (Otsuka Pharmaceutical Factory). Arachidonic acid was purchased from Cayman, and dispersed in physiological saline for injection (Otsuka Pharmaceutical Factory) with the use of an immersion type ultrasonic oscillator (US150, NIPPON SEIKI, tip end diameter ca. 3.5 mm). U46619 (pseudo-thromboxane substance) was purchased from FUNAKOSHI, and dissolved in physiological saline for injection (Otsuka Pharmaceutical Factory) when used.
(§4) Collagen (0.1 to 1 μg/ml), arachidonic acid (1 mM), ADP (1 μM), thrombin (1 U/ml), serotonin (100 μM), epinephrine (100 to 200 μM), and U46619 (3 μM) were used.
(§5) Indomethacin was used as a positive control for measuring the suppression of platelet aggregation induced by collagen.

platelets [3] = experiment: In vitro platelet aggregation by various inducers, rabbit platelets; assay type: cell-based; conditions: Oryctolagus cuniculus, Platelet; inducer collagen (0.1 to 1 μg/ml), rabbit platelets; read-out: 50% inhibition point, IC50, for in vitro platelet aggregation
Excerpt: as §1, §2, §3, §4, §5

platelets [4] = experiment: In vitro platelet aggregation by various inducers, rat platelets; assay type: cell-based; conditions: inducer collagen (0.1 to 1 μg/ml), rat platelets, read-out: 50% inhibition point, IC50, for in vitro platelet aggregation
Excerpt: as §1, §2, §3, §4, §5

platelets [5] = experiment: Ex vivo platelet aggregation after intravenous administration; assay type: in vivo, rat; conditions: 0.1 mg/kg intravenous, blood 1 hour after administration, collagen 1 to 6 μg/ml
Procedure: The blood was withdrawn at three points in time, 10 minutes, 30 minutes and 1 hour after administration. Platelets were prepared from the blood samples taken, and they were used to study the aggregation rates when platelet aggregation was induced by 0.3 to 6 μg/ml of collagen. In a control group, the aggregation rates after administration of a solvent (physiological saline) were measured.
It was studied whether the compound of the present invention would suppress ex vivo platelet aggregation dose-dependently.
The blood was withdrawn 60 minutes after administration, and platelets were prepared from the blood. Platelet aggregation was induced by 4 to 7 μg/ml of collagen using the platelets.
The blood was withdrawn 1 hour after intravenous administration, and platelets were prepared from the blood. Platelet aggregation was induced by 1 to 6 μg/ml of collagen using the platelets.

[6] = system: neutrophils and vascular endothelial cells; experiment: Pseudo-blood vessel in vitro inflammation model (TNFα, neutrophil migration through endothelial cell layer); assay type: cell-based, bovine; conditions: 30, 3 or 0.3 μM, TNFα 50 ng/ml
Procedure: A layer of bovine endothelial cells was adhered to the bottom surface of the membrane, and cultured for 80 minutes at 37° C. in 5% CO2. Then, a suspension of fluorescence-labeled neutrophils was added to the upper chamber of the transwell. Simultaneously, TNFα was suspended in the cell suspension in the upper chamber to an end concentration of 50, 25 or 17 ng/ml.
That is, in the above model, the phenomena that neutrophils pass from the upper chamber through the vascular endothelial cell layer into the lower chamber, and neutrophils adhere to the endothelial cell layer mimic a state where in response to TNFα within the blood vessel, neutrophils migrate from within the blood vessel to the site of inflammation.
In the same manner as described above, the number of neutrophils passing from the upper chamber through the vascular endothelial cell layer into the lower chamber, and the number of neutrophils adhering to the endothelial cell layer were measured. Based on these numbers, the neutrophil migration rate (%) was calculated. The neutrophil migration rate was expressed as the relative value (%) of the number of the migrating neutrophils in the drug treatment group with respect to the number of the migrating neutrophils in the negative control group (physiological saline).

| SMILES | IC50 (platelets [1]) [µM] | other results |
| --- | --- | --- |
| CCCCCCCCCCCCCC(=O)NCCC1CCCN1C (stereo not drawn) [Compound 4, N-[2-(1-methylpyrrolidin-2-yl)ethyl]myristamide] | 42 | – |
| COc1ccc2c(c1)c(CC(=O)O)c(C)n2C(=O)c1ccc(Cl)cc1 [Indomethacin, reference compound] | 5 | IC50 (platelets [2]): 29 µM; IC50 (platelets [3]): 4 µM; IC50 (platelets [4]): 18 µM |
| CCCCCCCC/C=C\CCCCCCCC(=O)NCCC1CCCN1C (stereo not drawn) [Compound 5, 9Z-N-[2-(1-methylpyrrolidin-2-yl)ethyl]oleamide] | 5.6 | ex vivo platelet aggregation (in words) (platelets [5]): suppress platelet aggregation |
| CC/C=C\C/C=C\C/C=C\C/C=C\C/C=C\C/C=C\CCC(=O)NCC1CCCN1C (stereo not drawn) [Compound 9, (4Z,7Z,10Z,13Z,16Z,19Z)-N-[(1-methylpyrrolidin-2-yl)methyl]docosahexaenoamide] | 1.5 | – |
| CCCCC/C=C\C/C=C\CCCCCCCC(=O)NCCC1CCCN1C (stereo not drawn) [Compound 6, (9Z,12Z)-N-[2-(1-methylpyrrolidin-2-yl)ethyl]linoleamide] | 2.1 | – |
| CC/C=C\C/C=C\C/C=C\C/C=C\C/C=C\C/C=C\CCC(=O)NCCCC1CCCN1C (stereo not drawn) [Compound 11, (4Z,7Z,10Z,13Z,16Z,19Z)-N-[3-(1-methylpyrrolidin-2-yl)propyl]docosahexaenoamide] | 4.2 | – |
| CCCCCCCC(=O)NCCC1CCCN1C (stereo not drawn) [Compound 3, N-[2-(1-methylpyrrolidin-2-yl)ethyl]caprylamide] | 8.1 | – |
| CC/C=C\C/C=C\C/C=C\C/C=C\C/C=C\CCCC(=O)NCCC1CCCN1C (stereo not drawn) [Compound 8, (5Z,8Z,11Z,14Z,17Z)-N-[2-(1-methylpyrrolidin-2-yl)ethyl]eicosapentaenoamide] | 3.7 | – |
| CC/C=C\C/C=C\C/C=C\CCCCCCCC(=O)NCCC1CCCN1C (stereo not drawn) [Compound 7, (9Z,12Z,15Z)-N-[2-(1-methylpyrrolidin-2-yl)ethyl]linolenamide] | 3.7 | – |
| CC/C=C\C/C=C\C/C=C\C/C=C\C/C=C\C/C=C\CCC(=O)NN1CCN(C)CC1 [Compound 1, (4Z,7Z,10Z,13Z,16Z,19Z)-N-(4-methylpiperazin-1-yl)docosahexaenoamide] | 7.9 | neutrophil passage through vascular endothelial cell layer (in words) [6]: suppressed neutrophil passage dose-dependently |
